For one assay, the target named is T1, Human Nav1.5 (Homo sapiens, UniProt Q14524).
T1 construct: expressed in transfected cells; host or cells: HEK293
Briefly: Nav1.5 Assay (VIPR, HEK293 cells). Format: cell-based. The conditions noted are these: HEK293 cells expressing Human Nav1.5; average of replicates; read-out: Nav1.5 IC50. The protocol:
The Nav1.5 assay is performed in HEK293 cells expressing Human Nav1.5 in the same way as the Nav1.8 assay.
Where replicate experiments were conducted resulting in multiple sets of data for a test compound, the data presented represent the average value from all replicate experiments.

In the next assay the target is T2, Human Nav1.8 (Homo sapiens, UniProt Q9Y5Y9).
T2 construct: expressed in transfected cells; host or cells: HEK293
The experiment in a line: VIPR Assay for Nav1.8 Compounds (FRET membrane potential, deltamethrin opener). Format: cell-based.

[1] abbreviates: VIPR FRET membrane potential assay, deltamethrin opener, average of replicates, read-out: Nav1.8 IC50.

Where two headings read alike, the source gives them in different places. Some results are limits rather than exact numbers.

T1 sequence (Q14524 whole entry): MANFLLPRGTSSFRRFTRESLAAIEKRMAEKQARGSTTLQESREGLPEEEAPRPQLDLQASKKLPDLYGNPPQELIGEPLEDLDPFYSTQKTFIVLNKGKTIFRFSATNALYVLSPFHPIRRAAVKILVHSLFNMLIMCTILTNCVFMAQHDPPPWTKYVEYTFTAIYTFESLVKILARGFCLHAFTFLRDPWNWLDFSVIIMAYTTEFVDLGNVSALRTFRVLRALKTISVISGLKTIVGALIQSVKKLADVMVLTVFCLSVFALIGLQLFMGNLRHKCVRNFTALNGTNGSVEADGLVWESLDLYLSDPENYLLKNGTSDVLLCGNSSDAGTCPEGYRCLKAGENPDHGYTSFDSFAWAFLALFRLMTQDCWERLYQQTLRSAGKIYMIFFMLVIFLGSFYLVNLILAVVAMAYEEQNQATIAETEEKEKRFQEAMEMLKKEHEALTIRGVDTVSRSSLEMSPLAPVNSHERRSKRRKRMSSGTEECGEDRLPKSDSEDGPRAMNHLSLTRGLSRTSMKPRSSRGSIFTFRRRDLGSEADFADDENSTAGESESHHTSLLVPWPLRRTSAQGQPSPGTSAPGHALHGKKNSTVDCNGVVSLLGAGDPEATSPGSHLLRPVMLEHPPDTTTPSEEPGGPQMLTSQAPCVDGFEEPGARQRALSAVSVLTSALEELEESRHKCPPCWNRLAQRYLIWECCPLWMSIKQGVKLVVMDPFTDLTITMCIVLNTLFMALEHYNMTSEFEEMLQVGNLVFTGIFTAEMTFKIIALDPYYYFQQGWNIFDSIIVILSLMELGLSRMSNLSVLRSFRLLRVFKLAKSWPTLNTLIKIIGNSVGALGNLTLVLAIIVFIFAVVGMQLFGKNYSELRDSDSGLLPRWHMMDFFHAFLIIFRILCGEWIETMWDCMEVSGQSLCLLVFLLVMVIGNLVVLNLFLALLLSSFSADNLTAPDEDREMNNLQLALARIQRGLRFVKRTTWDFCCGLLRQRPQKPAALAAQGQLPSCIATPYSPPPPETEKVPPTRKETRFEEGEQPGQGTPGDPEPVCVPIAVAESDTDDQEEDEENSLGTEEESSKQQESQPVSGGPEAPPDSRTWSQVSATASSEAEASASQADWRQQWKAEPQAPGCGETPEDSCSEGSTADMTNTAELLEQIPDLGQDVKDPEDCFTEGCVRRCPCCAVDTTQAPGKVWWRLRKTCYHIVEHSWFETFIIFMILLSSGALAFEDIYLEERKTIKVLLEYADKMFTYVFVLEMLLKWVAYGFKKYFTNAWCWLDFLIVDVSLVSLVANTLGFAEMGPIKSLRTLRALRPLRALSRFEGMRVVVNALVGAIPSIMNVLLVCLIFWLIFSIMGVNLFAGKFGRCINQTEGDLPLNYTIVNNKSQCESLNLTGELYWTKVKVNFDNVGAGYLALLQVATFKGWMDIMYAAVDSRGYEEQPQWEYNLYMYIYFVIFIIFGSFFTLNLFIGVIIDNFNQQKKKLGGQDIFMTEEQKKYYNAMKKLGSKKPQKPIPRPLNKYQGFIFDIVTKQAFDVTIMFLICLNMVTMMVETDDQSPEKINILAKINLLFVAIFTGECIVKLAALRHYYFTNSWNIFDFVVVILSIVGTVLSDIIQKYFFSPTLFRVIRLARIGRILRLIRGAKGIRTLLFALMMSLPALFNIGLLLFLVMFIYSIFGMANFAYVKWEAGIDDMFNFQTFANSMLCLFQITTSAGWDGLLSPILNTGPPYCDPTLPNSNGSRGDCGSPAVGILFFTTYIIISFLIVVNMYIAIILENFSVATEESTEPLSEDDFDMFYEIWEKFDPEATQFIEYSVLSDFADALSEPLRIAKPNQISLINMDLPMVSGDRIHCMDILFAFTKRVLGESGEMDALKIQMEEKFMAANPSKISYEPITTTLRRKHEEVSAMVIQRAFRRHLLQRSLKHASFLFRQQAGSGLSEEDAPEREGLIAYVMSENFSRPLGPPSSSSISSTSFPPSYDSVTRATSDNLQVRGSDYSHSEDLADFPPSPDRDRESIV
T2 sequence (Q9Y5Y9 whole entry): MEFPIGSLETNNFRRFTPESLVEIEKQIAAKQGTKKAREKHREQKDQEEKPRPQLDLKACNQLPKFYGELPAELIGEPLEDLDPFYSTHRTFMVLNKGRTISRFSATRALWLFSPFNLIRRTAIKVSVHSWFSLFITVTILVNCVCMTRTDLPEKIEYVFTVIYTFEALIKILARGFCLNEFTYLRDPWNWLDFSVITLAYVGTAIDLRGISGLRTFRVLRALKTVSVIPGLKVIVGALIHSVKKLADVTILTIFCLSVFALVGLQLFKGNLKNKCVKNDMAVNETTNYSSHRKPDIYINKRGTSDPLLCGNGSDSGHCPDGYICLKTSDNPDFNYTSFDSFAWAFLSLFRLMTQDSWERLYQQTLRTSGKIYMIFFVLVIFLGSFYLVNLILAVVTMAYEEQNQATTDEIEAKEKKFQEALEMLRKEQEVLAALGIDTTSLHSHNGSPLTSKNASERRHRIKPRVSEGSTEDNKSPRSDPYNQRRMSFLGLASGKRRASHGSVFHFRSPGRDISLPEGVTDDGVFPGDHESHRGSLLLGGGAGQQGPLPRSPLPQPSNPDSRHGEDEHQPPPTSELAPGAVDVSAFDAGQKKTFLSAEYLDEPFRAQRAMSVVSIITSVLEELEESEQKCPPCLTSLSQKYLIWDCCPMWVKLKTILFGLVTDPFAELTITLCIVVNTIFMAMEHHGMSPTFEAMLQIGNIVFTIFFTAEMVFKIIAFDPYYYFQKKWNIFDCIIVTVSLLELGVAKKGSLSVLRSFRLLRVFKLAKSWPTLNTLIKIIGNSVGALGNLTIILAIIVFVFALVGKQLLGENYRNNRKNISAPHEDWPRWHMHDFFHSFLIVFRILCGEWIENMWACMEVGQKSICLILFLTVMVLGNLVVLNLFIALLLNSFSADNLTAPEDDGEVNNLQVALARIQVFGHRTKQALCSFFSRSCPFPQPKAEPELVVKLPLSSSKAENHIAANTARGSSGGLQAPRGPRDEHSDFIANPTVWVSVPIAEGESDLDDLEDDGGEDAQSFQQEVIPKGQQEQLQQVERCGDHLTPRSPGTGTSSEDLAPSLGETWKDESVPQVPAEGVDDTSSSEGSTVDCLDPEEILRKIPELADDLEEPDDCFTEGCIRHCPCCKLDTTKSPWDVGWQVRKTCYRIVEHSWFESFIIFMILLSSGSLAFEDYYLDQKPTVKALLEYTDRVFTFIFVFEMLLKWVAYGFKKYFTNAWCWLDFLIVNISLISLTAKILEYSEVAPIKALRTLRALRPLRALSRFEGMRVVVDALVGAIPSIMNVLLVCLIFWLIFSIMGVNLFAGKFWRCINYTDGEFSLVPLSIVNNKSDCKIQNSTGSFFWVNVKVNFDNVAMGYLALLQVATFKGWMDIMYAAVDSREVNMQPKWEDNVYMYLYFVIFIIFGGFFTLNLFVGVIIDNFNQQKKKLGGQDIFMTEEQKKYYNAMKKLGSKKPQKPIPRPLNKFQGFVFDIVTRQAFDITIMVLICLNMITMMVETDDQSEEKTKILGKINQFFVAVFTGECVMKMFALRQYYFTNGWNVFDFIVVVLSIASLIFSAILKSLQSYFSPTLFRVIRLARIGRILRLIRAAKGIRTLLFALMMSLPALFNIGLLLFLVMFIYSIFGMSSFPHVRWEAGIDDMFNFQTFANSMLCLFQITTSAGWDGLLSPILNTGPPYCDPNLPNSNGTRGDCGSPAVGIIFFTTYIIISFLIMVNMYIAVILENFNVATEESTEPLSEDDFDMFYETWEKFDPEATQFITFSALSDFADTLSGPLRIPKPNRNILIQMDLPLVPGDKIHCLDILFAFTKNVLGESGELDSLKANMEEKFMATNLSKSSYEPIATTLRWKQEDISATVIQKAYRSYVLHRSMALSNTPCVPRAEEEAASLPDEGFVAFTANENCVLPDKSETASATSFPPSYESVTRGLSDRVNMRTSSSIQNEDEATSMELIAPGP

Take `CCOc1ccccc1-c1ccc(NC(=O)c2ccnn2C)nc1N` [Example 130]: the IC50 – broadly, the point on the concentration scale where inhibition reaches its midpoint – on Human Nav1.5 is 22 µM; on Human Nav1.8 (setting [1]) it was 2.3 µM.

Take `COc1ccc(Cl)c(-c2ccc(NC(=O)c3ccnn3C(C)C)nc2N)c1` [Example 142]: the results for the IC50 at Human Nav1.5 and at Human Nav1.8 (setting [1]) were 17 µM and 0.96 µM, respectively.

With `CCOc1ccc(Cl)c(-c2ccc(NC(=O)c3ccnn3C)nc2N)c1` [Example 150], the IC50 is 19 µM at Human Nav1.5 and 2.5 µM on Human Nav1.8 (setting [1]).

Turning to `Cc1ccc(OC(F)(F)F)c(-c2ccc(NC(=O)c3ccnn3C)nc2N)c1` [Example 137], the results for the IC50 on Human Nav1.5 and on Human Nav1.8 (setting [1]) were 18 µM and 1.2 µM, respectively.

Consider `Cc1nocc1C(=O)Nc1ccc(-c2ccccc2CC(F)(F)F)c(N)n1` [Example 146], for which the half-inhibitory concentration (IC50) at Human Nav1.5 was 13 µM.

In the case of `Cn1nccc1C(=O)Nc1ccc(-c2ccccc2OCC2CC2)c(N)n1` [Example 143], the IC50 on Human Nav1.5 stood at 24 µM; at Human Nav1.8 (setting [1]), 0.97 µM.

As for `COc1ccc(OC(F)(F)F)c(-c2ccc(NC(=O)c3conc3C)nc2N)c1` [Example 148], the IC50 on Human Nav1.5 turned out to be 10 µM; at Human Nav1.8 (setting [1]) it was 0.56 µM.

For the compound `COCCCOc1ccccc1-c1ccc(NC(=O)c2ccnn2C)nc1N` [Example 157], the IC50 on Human Nav1.5 was more than 32 µM; on Human Nav1.8 (setting [1]) it was 9.5 µM.

Regarding `COCc1ccc(Cl)c(-c2ccc(NC(=O)c3ccnn3C)nc2N)c1` [Example 141], the IC50 at Human Nav1.5 is more than 32 µM; at Human Nav1.8 (setting [1]), 5.4 µM.

Regarding `Cc1nocc1C(=O)Nc1ccc(-c2cc(O)cc(Cl)c2Cl)c(N)n1` [Example 176], the concentration for half-maximal inhibition (IC50) at Human Nav1.5 turned out to be 10 µM; at Human Nav1.8 (setting [1]), 1.4 µM.

Regarding `COc1ccc(F)cc1-c1ccc(NC(=O)c2conc2C)nc1N` [Example 123], the IC50 at Human Nav1.5 is more than 32 µM; on Human Nav1.8 (setting [1]) it was 2.4 µM.

With `CCOc1ccc(Cl)c(-c2ccc(NC(=O)c3conc3C)nc2N)c1` [Example 154], the IC50 on Human Nav1.5 is 10 µM; at Human Nav1.8 (setting [1]), 0.47 µM.

For the compound `CC(C)Oc1ccc(F)cc1-c1ccc(NC(=O)c2ccnn2C)nc1N` [Example 109, N-[6-amino-5-(5-fluoro-2-isopropoxyphenyl)pyridin-2-yl]-1-methyl-1H-pyrazole-5-carboxamide], the results for the IC50 on Human Nav1.5 and on Human Nav1.8 (setting [1]) were 27 µM and 5.7 µM, respectively.

Consider `COCCOc1ccccc1-c1ccc(NC(=O)c2ccnn2C)nc1N` [Example 155], for which the half-maximal inhibitory concentration (IC50) at Human Nav1.5 was more than 32 µM; at Human Nav1.8 (setting [1]) it was 18 µM.

As for `Cn1nccc1C(=O)Nc1ccc(-c2cc(O)cc(Cl)c2Cl)c(N)n1` [Example 177], the IC50 is 12 µM at Human Nav1.5 and 1.3 µM at Human Nav1.8 (setting [1]).

Regarding `COCCOc1ccc(F)cc1-c1ccc(NC(=O)c2conc2C)nc1N` [Example 169], the IC50 at Human Nav1.5 was more than 32 µM; on Human Nav1.8 (setting [1]), 4.9 µM.

As to `CCCCOc1ccc(F)cc1-c1ccc(NC(=O)c2ccnn2C)nc1N` [Example 144], the values for the IC50 at Human Nav1.5 and at Human Nav1.8 (setting [1]) were 23 µM and 0.53 µM, respectively.

Consider `COC(C)COc1ccccc1-c1ccc(NC(=O)c2ccnn2C)nc1N` (stereo not drawn) [Example 160], for which the figures for the IC50 on Human Nav1.5 and on Human Nav1.8 (setting [1]) were more than 32 µM and 13 µM, respectively.

On to `CCCOc1ccc(F)cc1-c1ccc(NC(=O)c2conc2C)nc1N` [Example 162], for which the IC50 on Human Nav1.5 was 7.7 µM; on Human Nav1.8 (setting [1]), 0.09 µM.

Regarding `COCCOc1ccccc1-c1ccc(NC(=O)c2conc2C)nc1N` [Example 149], the IC50 on Human Nav1.5 was more than 32 µM; at Human Nav1.8 (setting [1]), 4 µM.

For `COc1cccc(-c2ccc(NC(=O)c3conc3C)nc2N)c1OC` [Example 133], the concentration for half-maximal inhibition (IC50) was more than 32 µM at Human Nav1.5 and 2.9 µM on Human Nav1.8 (setting [1]).

`CCOc1ccc(OC(F)(F)F)c(-c2ccc(NC(=O)c3ccnn3C)nc2N)c1` [Example 110, N-{6-amino-5-[5-ethoxy-2-(trifluoromethoxy)phenyl]pyridin-2-yl}-1-methyl-1H-pyrazole-5-carboxamide]: the half-maximal inhibitory concentration (IC50) was found to be 2.3 µM on Human Nav1.5 and 1.5 µM on Human Nav1.8 (setting [1]).

Consider `COCCCOc1ccccc1-c1ccc(NC(=O)c2conc2C)nc1N` [Example 156], for which the figures for the IC50 at Human Nav1.5 and on Human Nav1.8 (setting [1]) were 31 µM and 3.1 µM, respectively.

As for `CC(C)COc1ccccc1-c1ccc(NC(=O)c2ccnn2C)nc1N` [Example 131], the IC50 on Human Nav1.5 worked out at 18 µM; on Human Nav1.8 (setting [1]), 0.64 µM.

Consider `CCCOc1ccc(F)cc1-c1ccc(NC(=O)c2ccnn2C)nc1N` [Example 136], for which the figures for the half-inhibitory concentration (IC50) on Human Nav1.5 and on Human Nav1.8 (setting [1]) were 27 µM and 0.6 µM, respectively.

In the case of `Cc1oncc1C(=O)Nc1ccc(-c2cc(Cl)cc(Cl)c2Cl)c(N)n1` [Example 22, N-[6-Amino-5-(2,3,5-trichlorophenyl)pyridin-2-yl]-5-methylisoxazole-4-carboxamide], the IC50 on Human Nav1.5 turned out to be 4.6 µM; at Human Nav1.8 (setting [1]), 1 µM.

Turning to `COC(C)COc1ccc(F)cc1-c1ccc(NC(=O)c2conc2C)nc1N` (stereo not drawn) [Example 159], the IC50 on Human Nav1.5 was more than 32 µM; on Human Nav1.8 (setting [1]), 4.7 µM.

On to `COCc1ccccc1-c1ccc(NC(=O)c2conc2C)nc1N` [Example 129], for which the values for the IC50 on Human Nav1.5 and at Human Nav1.8 (setting [1]) were 20 µM and 3.5 µM, respectively.

On to `COCc1ccc(Cl)c(-c2ccc(NC(=O)c3conc3C)nc2N)c1` [Example 138], for which the IC50 on Human Nav1.5 was 23 µM; at Human Nav1.8 (setting [1]) it was 1 µM.

Consider `COCCCOc1ccc(F)cc1-c1ccc(NC(=O)c2ccnn2C)nc1N` [Example 153], for which the IC50 on Human Nav1.5 was more than 32 µM; at Human Nav1.8 it was 8.8 µM.

On to `Cc1nocc1C(=O)Nc1ccc(-c2ccccc2OCC(F)(F)F)c(N)n1` [Example 134], for which the 50% inhibitory concentration (IC50) came out at 18 µM at Human Nav1.5 and 0.41 µM at Human Nav1.8 (setting [1]).

`CCOc1ccc(F)cc1-c1ccc(NC(=O)c2conc2C)nc1N` [Example 135]: the IC50 on Human Nav1.5 was determined as 26 µM; at Human Nav1.8 (setting [1]), 0.28 µM.

With `COCCCOc1ccc(F)cc1-c1ccc(NC(=O)c2conc2C)nc1N` [Example 152], the concentration for half-maximal inhibition (IC50) on Human Nav1.5 was found to be 31 µM; on Human Nav1.8 (setting [1]), 1.9 µM.

On to `COC(C)COc1ccccc1-c1ccc(NC(=O)c2conc2C)nc1N` (stereo not drawn) [Example 161], for which the figures for the IC50 at Human Nav1.5 and on Human Nav1.8 (setting [1]) were more than 32 µM and 6.7 µM, respectively.

In the case of `COCCOc1ccc(Cl)c(-c2ccc(NC(=O)c3ccnn3C)nc2N)c1` [Example 151], the half-maximal inhibitory concentration (IC50) at Human Nav1.5 was more than 32 µM; on Human Nav1.8 (setting [1]), 5.1 µM.

In the case of `Cc1nocc1C(=O)Nc1ccc(-c2cc(Cl)ccc2OCC(F)(F)F)c(N)n1` [Example 163], the IC50 at Human Nav1.5 amounted to 9.9 µM; at Human Nav1.8 (setting [1]) it was 0.48 µM.

As to `Cc1nocc1C(=O)Nc1ccc(-c2cc(F)ccc2OC2CCOC2)c(N)n1` (stereo not drawn) [Example 167], the IC50 at Human Nav1.5 was more than 32 µM; at Human Nav1.8 (setting [1]), 11 µM.

For the compound `CCOc1ccc(F)cc1-c1ccc(NC(=O)c2ccnn2C)nc1N` [Example 132], the values for the IC50 on Human Nav1.5 and on Human Nav1.8 (setting [1]) were more than 32 µM and 1.5 µM, respectively.

Turning to `Cn1nccc1C(=O)Nc1ccc(-c2ccccc2CC(F)(F)F)c(N)n1` [Example 139], the IC50 at Human Nav1.5 was found to be 7.5 µM; at Human Nav1.8 (setting [1]), 2.1 µM.

Consider `COc1ccc(OC(F)(F)F)c(-c2ccc(NC(=O)c3ccnn3C)nc2N)c1` [Example 140], for which the results for the IC50 at Human Nav1.5 and at Human Nav1.8 (setting [1]) were 18 µM and 0.43 µM, respectively.

In the case of `COCCOc1ccc(F)cc1-c1ccc(NC(=O)c2ccnn2C)nc1N` [Example 147], the IC50 on Human Nav1.5 was more than 32 µM; at Human Nav1.8 (setting [1]), 12 µM.

On to `COCCOc1ccc(Cl)c(-c2ccc(NC(=O)c3conc3C)nc2N)c1` [Example 170], for which the figures for the IC50 at Human Nav1.5 and at Human Nav1.8 (setting [1]) were 21 µM and 0.9 µM, respectively.

`Cn1nccc1C(=O)Nc1ccc(-c2cc(Cl)cc(Cl)c2Cl)c(N)n1` [Example 4, N-[6-Amino-5-(2,3,5-trichlorophenyl)pyridin-2-yl]-1-methyl-1H-pyrazole-5-carboxamide]: at Human Nav1.8 (setting [1]), the half-maximal inhibitory concentration (IC50) was determined as 0.68 µM.

The record behind these values is patent US8134007B2, “Pyridine derivatives” (Pfizer Inc., priority 2007, dated 2012).
